The values that follow come from patent US9220680B2, “Compositions and methods for localized drug delivery through mammary papillae” (South Dakota State University, priority 2012, dated 2015).

The test system of data set [1] is MDA-MB-231 cells. In words: TUNEL assay and flow cytometry (apoptosis). In kind it is cell-based, human. The method, then: (§1) TUNEL Assay and Flow Cytometry: After incubation with alpha-santalol, cells were fixed with paraformaldehyde and ethanol. DNA strand breaks were labeled with BrdUTP. Brdu incorporation at DNA strand breaks was detected by Alexa Fluor 488 dye-labeled anti-BrdU antibodies. Samples were analyzed by Flow Cytometry.
(Flow cytometry measures light scatter and fluorescence of single cells or particles in a stream.)

In data set [2] the test system is MCF-7 cells. In words: TUNEL assay and flow cytometry (apoptosis). It counts as cell-based, human. The method, then: as §1
Data set [3] relates to MDA-MB-231 cells. In words: Cell cycle analysis, propidium iodide flow cytometry. In kind it is cell-based, human. Conditions: 25 μM-75 μM, 12 hours. The method, then: (§2) Cell Cycle Analysis: After 12 hours of treatment with alpha-santalol, cells were fixed with 70% ethanol in PBS, treated with RNaseA, followed by staining with propidium iodide. Cells were analyzed by flow cytometry to determine cell-cycle distribution.

The test system of data set [4] is MCF-7 cells. The description is as above. It counts as cell-based, human. The following applies: 25 μM-75 μM, 12 hours. As for the experimental part: as §2
The test system of data set [5] is MDA-MB-231 cells. Briefly: MTT assay (cell viability). It counts as cell-based, human. The following applies: different concentrations and time points. The method, then: (§3) MTT Assay: After treatment with different concentrations of α-santalol for different time points, cells were incubated with MTT and subsequently solubilized in DMSO. Absorbance was measured at 570 nm.
(In general: Tetrazolium assays rely on reduction of a dye to a coloured formazan, in cell work by metabolically active cells.)

The subject of data set [6] is MCF-7 cells. Briefly: MTT assay (cell viability). It counts as cell-based, human. The following applies: different concentrations and time points. As for the experimental part:
as §3

The test system of data set [7] is MDA-MB-231 cells. Briefly: BrdU cell proliferation ELISA. It counts as cell-based, human. The following applies: 24 and 48 hours. As for the experimental part:
(§4) BrdU Cell Proliferation ELISA: Used to quantitate cell proliferation based on the measurement of Brdu incorporation during DNA synthesis in proliferating cells. At the end of 24 and 48 hours of treatment, cells were labeled with BrdU, fixed, denatured, and then incubated with Anti-BrdU POD. Absorbance was measured at 405 nm.
A general note: ELISA stands for enzyme-linked immunosorbent assay.

Data set [8] has as its system MCF-7 cells. Briefly: BrdU cell proliferation ELISA. It counts as cell-based, human. The following applies: 24 and 48 hours. As for the experimental part: as §4
A short description of data set [9]: Penetration of α-santalol into porcine mammary papilla without keratin plug removal (Experiment 25). In kind it is in vitro ADME. Conditions: value (SEM), n=3. As for the experimental part:
Experiment procedure—Mammary papillae were setup in FSD and kept for saturation for 12 hours. Then 500 μl of drug formulation was added in the donor. Three 200 μl samples of donor were taken to determine GCMS area of donors. Now 200 μl samples were collected from the receptor on each time point. […] Results may be seen in FIG. 51 and Table 33.

For data set [10], the system named is MDA-MB-231 cells. Briefly: Western blotting of apoptotic proteins. In kind it is cell-based, human. The following applies: 12, 24 or 48 hours. As for the experimental part: (§5) Western Blotting: Cells were treated with various concentrations of α-santalol and incubated for 12, 24 or 48 hours. Cell lysates were made and subjected to western blot analysis to determine the expression of different proteins.

For data set [11], the system named is MCF-7 cells. In words: Western blotting of apoptotic proteins. It counts as cell-based, human. Conditions: 12, 24 or 48 hours. The method, then: as §5
A short description of data set [12]: Topical transmammary delivery of tamoxifen with and without α-santalol via porcine mammary papilla (Experiment 27). In kind it is in vitro ADME. The following applies: given in combination with α-santalol. The method, then:
From the receptor, 200 μl samples were taken at every time point. After 48 hours, tissues were taken, washed, cut in four sections, weighed and solubilized using the tissue solubilizer. After 24 hours, DPM counts were measured from each section of the tissue using scintillation cocktail.

Where [13] appears, read: 6 hours treatment 48 h disposition study.

On to `C/C(=C/CCC1(C)C2CC3C(C2)C31C)CO` (stereo not drawn) [alpha-santalol], for which the “Apoptosis (TUNEL, flow cytometry)” value in data set [1] and in data set [2] was “significantly induced apoptosis” throughout. Besides, the Cell cycle distribution result in [3] and in data set [4] was “arrested cell cycles at the G2/M phase” each time. Further, the “Cell viability (MTT)” value in data set [5] was “inhibition of cell viability and proliferation in a time and dose-dependent manner”; in data set [6], “inhibition of cell viability and proliferation in a time and dose-dependent manner”. The “Cell proliferation (BrdU ELISA)” value was “inhibition of cell viability and proliferation in a time and dose-dependent manner” in [7]; “inhibition of cell viability and proliferation in a time and dose-dependent manner” in data set [8]. In addition, the Tissue retention in data set [9] (5% v/v in 2:1 ethanol:PBS, 6 h treatment) is 5.21 (0.41) μmole/g tissue; in data set [9] (setting [13]), 5.34 (0.52) μmole/g tissue; in data set [9] (48 h treatment) it was 35.52 (3.69) μmole/g tissue. The “Tissue retention (% of applied dose)” value in [9] (setting [13]) is reported as 2.01 (0.12) % of applied dose; in data set [9] (6 h treatment), 2.20 (0.19) % of applied dose; in [9] (48 h treatment), 15.30 (2.20) % of applied dose. For the same compound, the “Cleavage of apoptotic proteins (western blot)” value in data set [10] is “caspase-3 and PARP cleavage”; in [11] it was “PARP cleavage”.
Regarding `CC/C(=C(\c1ccccc1)c1ccc(OCCN(C)C)cc1)c1ccccc1` [tamoxifen], the “Applied dose retained by the tissue” value in data set [12] is recorded as “approximately 40%”.
